What was measured:
[1] = biological target: T1, biotinylated mouse siglec-2-Fc-Avi (Mus musculus, UniProt P35329); assay: SPR binding to mouse siglec-2/CD22; settings: steady-state analysis, read-out: Mouse CD22 affinity
T1 construct: made in house
T1 sequence (P35329 22-708 limits assumed): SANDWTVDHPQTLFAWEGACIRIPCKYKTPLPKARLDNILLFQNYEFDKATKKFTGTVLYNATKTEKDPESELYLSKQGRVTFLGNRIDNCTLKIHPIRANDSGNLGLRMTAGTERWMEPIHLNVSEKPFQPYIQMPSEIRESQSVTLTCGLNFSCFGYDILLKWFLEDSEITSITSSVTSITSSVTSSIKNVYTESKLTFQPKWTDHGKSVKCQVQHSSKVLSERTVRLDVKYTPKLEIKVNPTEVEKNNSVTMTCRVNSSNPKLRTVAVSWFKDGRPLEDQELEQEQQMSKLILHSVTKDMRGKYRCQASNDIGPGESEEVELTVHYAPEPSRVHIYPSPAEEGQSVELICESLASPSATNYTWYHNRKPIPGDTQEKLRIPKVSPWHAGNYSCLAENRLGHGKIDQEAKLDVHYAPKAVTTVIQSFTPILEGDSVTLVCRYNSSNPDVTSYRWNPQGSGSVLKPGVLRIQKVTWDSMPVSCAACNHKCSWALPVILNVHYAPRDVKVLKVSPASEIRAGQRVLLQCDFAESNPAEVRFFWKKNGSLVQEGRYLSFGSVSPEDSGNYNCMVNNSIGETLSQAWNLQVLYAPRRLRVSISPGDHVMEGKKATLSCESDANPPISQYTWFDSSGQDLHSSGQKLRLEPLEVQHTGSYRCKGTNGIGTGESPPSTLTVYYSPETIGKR
Procedure: (§1) The following proteins were used for CD22 ligand binding: biotinylated human siglec-2/CD22 protein-His-Avitag (Acro Biosystems, Cat #SI2-H82E3), biotinylated mouse siglec-2-Fc-Avi (in-house production), and recombinant cynomolgus siglec-2/CD22 His-tag (R&D systems, Cat #9864-SL-050). Prior to immobilization, CD22 proteins were treated with SialoExo (Genovis, Cat #G1-SM1-020) for 4 hours at 37° C. to remove native sialic acid residues.
(§2) Capture of biotinylated CD22 constructs was performed using a Cytiva SA chip (BR100398) on a Biacore 8K instrument. Human siglec 2 was immobilized on channels 1-4 and mouse siglec 2 on channels 5-8 on the active flow cell (2) and the reference flow cell (1) was immobilized with biotinylated human FGFR2 Fc Avi, an unrelated protein, to account for any nonspecific binding. Human siglec 2 and Mouse siglec 2 were diluted in running buffer to 20 μg/mL and injected on the active flow cell (2) for 300 seconds at 5 μL/min, yielding about 3500 RU of captured constructs.
(§3) Binding experiments of siglec-ligand conjugated proteins or Siglec ligand compounds were performed on the surfaces prepared above in 10 mM HEPES, 150 mM NaCl, 0.05% Tween-20, pH 7.5, 1% DMSO as the running buffer. Compounds were serially diluted in running buffer from 50 μM to 97.6 nM and injected over both the reference and active flow cells for 90 seconds at 30 μL/min. The compounds were then allowed to dissociate from the surface for 120 seconds. No regeneration was required as the compounds completely dissociated from the surface after 30 seconds. Solvent correction was performed using 0.5, 1, 1.5, and 2% DMSO spike into running buffer without DMSO. Data was analyzed using steady-state analysis in Biacore Insight Evaluation Software, version 3.0.

[2] = biological target: T2, biotinylated human siglec-2/CD22 protein-His-Avitag (Homo sapiens, UniProt P20273); assay: SPR binding to human siglec-2/CD22; settings: steady-state analysis, read-out: Human CD22 affinity
T2 construct: purchased Acro Biosystems SI2-H82E3
T2 sequence (P20273 20-847): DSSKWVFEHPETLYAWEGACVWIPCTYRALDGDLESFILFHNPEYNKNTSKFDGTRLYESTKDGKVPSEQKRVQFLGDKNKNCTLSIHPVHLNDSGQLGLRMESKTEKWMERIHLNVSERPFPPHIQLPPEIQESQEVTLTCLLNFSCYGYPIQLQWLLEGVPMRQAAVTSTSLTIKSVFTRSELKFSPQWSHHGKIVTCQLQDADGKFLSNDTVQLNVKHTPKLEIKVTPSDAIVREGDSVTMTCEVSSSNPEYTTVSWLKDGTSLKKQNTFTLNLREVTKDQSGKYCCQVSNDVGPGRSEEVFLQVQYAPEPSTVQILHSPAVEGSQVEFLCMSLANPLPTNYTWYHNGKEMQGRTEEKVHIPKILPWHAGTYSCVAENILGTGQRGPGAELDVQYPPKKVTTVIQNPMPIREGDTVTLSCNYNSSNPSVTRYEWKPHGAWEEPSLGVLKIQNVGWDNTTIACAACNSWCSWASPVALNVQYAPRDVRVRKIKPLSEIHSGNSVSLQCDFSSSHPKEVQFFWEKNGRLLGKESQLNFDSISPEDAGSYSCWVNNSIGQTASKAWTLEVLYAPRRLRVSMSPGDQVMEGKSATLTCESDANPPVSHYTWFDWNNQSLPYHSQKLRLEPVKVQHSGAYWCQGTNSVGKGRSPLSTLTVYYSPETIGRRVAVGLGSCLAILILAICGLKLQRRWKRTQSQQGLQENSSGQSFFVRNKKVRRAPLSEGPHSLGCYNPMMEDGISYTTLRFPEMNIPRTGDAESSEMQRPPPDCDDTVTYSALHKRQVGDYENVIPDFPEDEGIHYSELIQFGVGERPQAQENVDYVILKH
Procedure: as §1, §2, §3

[3] = biological target: recombinant cynomolgus siglec-2/CD22 His-tag (Macaca fascicularis, UniProt A0A2K5WCZ6); assay: SPR binding to cynomolgus siglec-2/CD22; settings: steady-state analysis, read-out: Cyno CD22 affinity
Procedure: as §1
Surface preparation for cyno CD22 protein consisted of amine coupling to Cytiva CM5 chip (Cytiva, Cat #BR100530) using the Cytiva amine coupling kit Type 2 (Cytiva, Cat #BR100633). Following the standard amine coupling protocols, EDC and NHS from the kit were mixed 1:1 and injected over flow cells 1 and 2. Cyno CD22 was then immobilized by injecting 10 μg/mL in Sodium Acetate, pH 5.5 onto flow cell (2) for 420 seconds at 10 uL/min, yielding approximately 2500 RU of captured protein. Any active carboxy groups were then capped with 1M Ethanolamine, pH 8.5 for 420 s on flow cells 1 and 2.
as §3

Sequence of recombinant cynomolgus siglec-2/CD22 His-tag (A0A2K5WCZ6 entry or part of it): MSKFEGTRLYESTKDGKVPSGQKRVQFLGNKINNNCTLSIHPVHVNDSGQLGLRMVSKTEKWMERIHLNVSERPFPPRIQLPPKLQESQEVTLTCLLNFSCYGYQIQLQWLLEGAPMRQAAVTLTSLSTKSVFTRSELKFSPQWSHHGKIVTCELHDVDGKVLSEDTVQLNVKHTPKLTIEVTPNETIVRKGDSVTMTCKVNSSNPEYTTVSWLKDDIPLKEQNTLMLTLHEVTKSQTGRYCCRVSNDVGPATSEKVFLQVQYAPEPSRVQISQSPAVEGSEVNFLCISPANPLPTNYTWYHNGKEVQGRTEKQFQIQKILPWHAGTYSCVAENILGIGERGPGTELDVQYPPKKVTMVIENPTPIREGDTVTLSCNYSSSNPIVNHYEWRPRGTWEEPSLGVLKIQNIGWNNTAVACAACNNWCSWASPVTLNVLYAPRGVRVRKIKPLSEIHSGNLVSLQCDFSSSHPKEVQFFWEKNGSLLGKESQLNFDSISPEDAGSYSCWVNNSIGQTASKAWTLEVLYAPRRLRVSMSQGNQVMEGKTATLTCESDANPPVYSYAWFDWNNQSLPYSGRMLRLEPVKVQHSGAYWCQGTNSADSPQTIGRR

C#CCO[C@H]1C[C@](OCc2ccccc2)(C(=O)O)O[C@@H]([C@H](O)[C@H](O)CNC(=O)Cc2ccc(Cl)cc2)[C@@H]1NC(=O)CO [Compound 18, (2R,4S,5R,6R)-2-(benzyloxy)-6-((1R,2R)-3-(2-(4-chlorophenyl)acetamido)-1,2-dihydroxypropyl)-5-(2-hydroxyacetamido)-4-(prop-2-yn-1-yloxy)tetrahydro-2H-pyran-2-carboxylic acid]
Kd [1]: 1000 to 10000 nM | Kd [2]: 1000 to 10000 nM | Kd [3]: 1000 to 10000 nM

CCCNC(=O)CCOCCOCCOCCn1cc(CO[C@H]2C[C@](OCc3ccccc3)(C(=O)O)O[C@@H]([C@H](O)[C@H](O)CNC(=O)Cc3ccc(Cl)cc3)[C@@H]2NC(=O)CO)nn1 [Compound 19, (2R,4S,5R,6R)-2-(benzyloxy)-6-((1R,2R)-3-(2-(4-chlorophenyl)acetamido)-1,2-dihydroxypropyl)-5-(2-hydroxyacetamido)-4-((1-(12-oxo-3,6,9-trioxa-13-azahexadecyl)-1H-1,2,3-triazol-4-yl)methoxy)tetrahydro-2H-pyran-2-carboxylic acid]
Kd [1]: 1000 to 10000 nM | Kd [2]: 1000 to 10000 nM | Kd [3]: 1000 to 10000 nM

C#CCO[C@H]1C[C@](OCCCCCC(=O)O)(C(=O)O)O[C@@H]([C@H](O)[C@H](O)CNC(=O)Cc2ccc(Cl)cc2)[C@@H]1NC(=O)CO [Compound 20, (2R,4S,5R,6R)-2-((5-carboxypentyl)oxy)-6-((1R,2R)-3-(2-(4-chlorophenyl)acetamido)-1,2-dihydroxypropyl)-5-(2-hydroxyacetamido)-4-(prop-2-yn-1-yloxy)tetrahydro-2H-pyran-2-carboxylic acid]
Kd [1]: 1000 to 10000 nM | Kd [2]: 1000 to 10000 nM | Kd [3]: 1000 to 10000 nM

C#CCOCCOCCOCCC(=O)N[C@H]1[C@H]([C@H](O)[C@H](O)CNC(=O)Cc2ccc(Cl)cc2)O[C@@](OCc2ccccc2)(C(=O)O)C[C@@H]1O [Compound 21, (2R,4S,5R,6R)-2-(benzyloxy)-6-((1R,2R)-3-(2-(4-chlorophenyl)acetamido)-1,2-dihydroxypropyl)-4-hydroxy-5-(3-(2-(2-(prop-2-yn-1-yloxy)ethoxy)ethoxy)propanamido)tetrahydro-2H-pyran-2-carboxylic acid]
Kd [1]: > 10000 nM | Kd [2]: 1000 to 10000 nM | Kd [3]: 1000 to 10000 nM

C#CCOCCOCCOCCOCCOCCNC(=O)N[C@H]1[C@H]([C@H](O)[C@H](O)CNC(=O)Cc2ccc(Cl)cc2)O[C@@](OCc2ccccc2)(C(=O)O)C[C@@H]1O [Compound 22, (2R,4S,5R,6R)-5-(3-(3,6,9,12,15-pentaoxaoctadec-17-yn-1-yl)ureido)-2-(benzyloxy)-6-((1R,2R)-3-(2-(4-chlorophenyl)acetamido)-1,2-dihydroxypropyl)-4-hydroxytetrahydro-2H-pyran-2-carboxylic acid]
Kd [1]: 1000 to 10000 nM | Kd [2]: > 10000 nM | Kd [3]: 1000 to 10000 nM

C#Cc1ccc(CC(=O)NC[C@@H](O)[C@@H](O)[C@@H]2O[C@@](OCCOCCOCCOC)(C(=O)O)C[C@H](O)[C@H]2NC(=O)CO)cc1 [Compound 25, (2R,4S,5R,6R)-6-((1R,2R)-3-(2-(4-ethynylphenyl)acetamido)-1,2-dihydroxypropyl)-4-hydroxy-5-(2-hydroxyacetamido)-2-(2-(2-(2-methoxyethoxy)ethoxy)ethoxy)tetrahydro-2H-pyran-2-carboxylic acid]
Kd [1]: 1000 to 10000 nM | Kd [2]: 1000 to 10000 nM | Kd [3]: 1000 to 10000 nM

C#Cc1ccc(CC(=O)NC[C@@H](O)[C@@H](O)[C@@H]2O[C@@](OCCCCCCc3cn(CCOCCOC)nn3)(C(=O)O)C[C@H](O)[C@H]2NC(=O)CO)cc1 [Compound 27, (2R,4S,5R,6R)-6-((1R,2R)-3-(2-(4-ethynylphenyl)acetamido)-1,2-dihydroxypropyl)-4-hydroxy-5-(2-hydroxyacetamido)-2-((6-(1-(2-(2-methoxyethoxy)ethyl)-1H-1,2,3-triazol-4-yl)hexyl)oxy)tetrahydro-2H-pyran-2-carboxylic acid]
Kd [1]: < 1000 nM | Kd [2]: < 1000 nM | Kd [3]: < 1000 nM

C#Cc1ccc(CC(=O)NC[C@@H](O)[C@@H](O)[C@@H]2O[C@@](OCCCCCCn3cc(COCCOC)nn3)(C(=O)O)C[C@H](O)[C@H]2NC(=O)CO)cc1 [Compound 28, (2R,4S,5R,6R)-6-((1R,2R)-3-(2-(4-ethynylphenyl)acetamido)-1,2-dihydroxypropyl)-4-hydroxy-5-(2-hydroxyacetamido)-2-((6-(4-((2-methoxyethoxy)methyl)-1H-1,2,3-triazol-1-yl)hexyl)oxy)tetrahydro-2H-pyran-2-carboxylic acid]
Kd [1]: < 1000 nM | Kd [2]: < 1000 nM | Kd [3]: < 1000 nM

CCCNC(=O)CCOCCOCCOCCOCCn1cc(-c2ccc(CC(=O)NC[C@@H](O)[C@@H](O)[C@@H]3O[C@@](OCCCCCCOC)(C(=O)O)C[C@H](O)[C@H]3NC(=O)CO)cc2)nn1 [Compound 52, (2R,4S,5R,6R)-6-((1R,2R)-1,2-dihydroxy-3-(2-(4-(1-(15-oxo-3,6,9,12-tetraoxa-16-azanonadecyl)-1H-1,2,3-triazol-4-yl)phenyl)acetamido)propyl)-4-hydroxy-5-(2-hydroxyacetamido)-2-((6-methoxyhexyl)oxy)tetrahydro-2H-pyran-2-carboxylic acid]
Kd [1]: 1000 to 10000 nM | Kd [2]: 1000 to 10000 nM | Kd [3]: 1000 to 10000 nM

CCCNC(=O)CCOCCOCCOCCOCCn1cc(-c2ccc(CC(=O)NC[C@@H](O)[C@@H](O)[C@@H]3O[C@@](OCCCCCCNc4c(NCCOC)c(=O)c4=O)(C(=O)O)C[C@H](O)[C@H]3NC(=O)CO)cc2)nn1 [Compound 53, (2R,4S,5R,6R)-6-((1R,2R)-1,2-dihydroxy-3-(2-(4-(1-(15-oxo-3,6,9,12-tetraoxa-16-azanonadecyl)-1H-1,2,3-triazol-4-yl)phenyl)acetamido)propyl)-4-hydroxy-5-(2-hydroxyacetamido)-2-((6-((2-((2-methoxyethyl)amino)-3,4-dioxocyclobut-1-en-1-yl)amino)hexyl)oxy)tetrahydro-2H-pyran-2-carboxylic acid]
Kd [1]: 1000 to 10000 nM | Kd [2]: < 1000 nM | Kd [3]: < 1000 nM

Reference: patent US20250127904A1, “SIGLEC LIGANDS, CONJUGATES, AND METHODS OF USE THEREOF” (Osprey Biopharmaceuticals, Inc., priority 2023, published 2025)
